According to patent US6911454B1, “Method for potentiating primary drugs in treating multidrug resistant disease” (priority 1989, dated 2005):
“Also recorded” adds a separate entry of the source.

Columns and labels:
DX20 cancer cells = test: modified MTT assay, drug sensitivity of DX20 cells; format: cell-based, human
Excerpt: The MES-SA/DX20 cell line was established according to the development methods of Sikic et al., Resistance to Antineoplastic Drugs, Chap. 3, CRC Press, Ed. David Kessel, pp. 37-47 (1989). In vitro drug sensitivity testing consisted of two assay models, the modified MTT assay (Mossman, J. Immunolog. Methods, Vol. 65, pp. 55-63, 1983) and the colonogenic assay. In addition to this, the combinations were investigated in vivo in nude mice bearing the DX20 cell line. The MTT assay was chosen because of its practical advantages in large-scale screening. The assay involved cellular conversion of tetrazolium salt to a colored formazan serving as a measurement of cell viability.
In a given experiment, culture media, 50 microliters, containing 8,000-25,000 cells, depending on the proliferation rate of the cell line, was pipetted into each well of several 96-well microtiter plates. The cells were allowed to attach overnight. […] The cytotoxic drug, also at a concentration below that previously established as an IC50, was then added at decreasing concentrations by 25% to several half plate sections. The cells were allowed to grown for 72 hours. 100 microliters of media was then removed and 25 microliters of 5 mg/ml MTT (Sigma, St. Louis, Mo.) in phosphate buffered saline was added to each well. The plates were kept in an incubator at 37° C. and 5% CO2. After 2-3 hours of incubation, the extraction buffer containing 20% w/v SDS and 50% DMF was added and the plates again incubated overnight. The plates were read at a test wavelength of 570 nm on a multiwell spectrophotometer (Model MR 700, Dynatech Laboratories, Alexandria, Va.). Each drug combination was tested in triplicate. Percent survival was defined as percent of optical density (OD) of the drug-treated wells to that of the control detected by the spectrophotometer.
The in vitro drug sensitivity testing of ethyl fangchinoline consisted of two assay models, the modified MTT (Mossman 1983) and a colony formation assay in which a direct measure was taken by quantitation of colony formation. The MTT assay was chosen because of its practical advantages in large scale screening. The assay involves cellular conversion of tetrozolium salt to a colored formazan serving as a measurement of cell viability.
Two human cell lines were chosen as the primary targets of study in reversing multiple-drug resistance. The MES-SA, a sarcoma, and its resistant subline, DX-20, were kindly donated by Dr. B. Sikic (U of Stanford, Stanford, Calif.). The A2780, an ovarian cancer, and its resistant subline, A2780-ad10, were provided by Roswell Park Memorial Inst. (Buffalo, N.Y.).
Culture media, 50 ul containing 8,000 to 25,000 cells depending on the proliferation rate of the line, was pipetted into each of 96 wells in a flat bottom tissue plate. The cells were incubated overnight to allow adherence. One hundred ul of ethyl fangchinoline, at a concentration below that previously established as an independent IC50, was added to each experimental well. […] The plates were then incubated for 72 hours before MTT was added and the analysis of O.D. values interpreted by a multi-plate scanner (MR700, Dynatech).

[1] = test system: resistant (K562-R7) cancel cells; test: doxorubicin fluorescence test by flow cytometry; format: cell-based; details: FIG. 12, resistant cells pre-incubated with tetrandrine
A2780AD10 = details: FIG. 4; A2780AD10 versus parent A2780; addition of d-tetrandrine
DX20 = details: FIG. 5; colony formation, 7 days; addition of d-tetrandrine
Experimental: The second assay model used, colony formation assay, consisted of 1000-1500 cells, again depending on the proliferation rate of the cell line being added to each well of 24 well microtiter plates in 500 microliters of culture media. The cells were allowed to attach overnight. […] The plates were incubated for a total of 7 days before being fixed in 2.5% glutaraldehyde and stained with crystal violet. Quantitations of colony growth were assessed using an ultrasensitive imaging device (LCVS-5, I.P.S., Pittsburgh, Pa.). A colony is defined as any cluster of 30 or more cells. Percent inhibition was directly measured against control plates containing no drugs.

breast cancer = test: treatment of a person with breast cancer; format: in vivo, human; details: d-tetrandrine 180 mg per day orally from day 95, with trichemo (5-fluorouracil, cyclophosphamide, doxorubicin)
Experimental: A person with breast cancer was given d-tetrandrine orally, three times a day for a total of 180 mg per day, over a two week period. Five days after the beginning of that treatment, they were given a trichemo soup of 5-fluorouracil, cyclophosphamide and doxorubicin. Eight days later, near the end of the d-tetrandrine dosage, they were given 5-fluorouracil. This regime was followed two different times approximately two weeks apart during the course of retreatment.
A person with very serious breast cancer has also been successfully treated in accordance with the method of the present invention. The tables below describe their treatment regime, which involved a trichemo soup of 5-fluorouracil, cyclophosphamide and doxorubicin, administered intermittently with 5-fluorouracil alone. No d-tetrandrine was administered until day 95.
FIG. 11 is a graphical log of […] tumor area in cubic centimeters charted against days elapsed. The tumor initially responded to the trichemo treatment alone, reducing in size until day 50.
The patient was diagnosed via biopsy on Mar. 19, 1991 as having an infiltrated carcinoma (poorly differentiated) on the right breast. […] They were treated with a combination of 5-fluorouracil, cyclophosphamide and doxorubicin according to the schedule shown below. […] Notice the increase in tumor size between days 50 and 100 indicating the formation of drug resistance.

[2] = d-Tetrandrine-(S) detected at the tumor; format: in vivo, mice; details: 3 intraperitoneal injections over 120 hours, 150 mg/kg total
[3] = test system: multidrug resistant human cancer (DX20); format: in vivo, mice; details: d-tetrandrine 0.5, 1, 1.5 mg injections; doxorubicin 5.5 mg per kg; about one month
Experimental: It is only important that they be administered sufficiently close together that the cancer is exposed to both simultaneously. For example, nude mice infected with a multidrug resistant human cancer were given 0.5 mg, 1 mg and 1.5 mg respectively in three separate injections, 72 hours apart.

**Q.** Which IC50 (DX20 cancer cells; DX20 cells, single agent, read-out: IC50 alone) does the source give for `COc1ccc2cc1Oc1ccc(cc1)C[C@H]1c3cc(c(OC)cc3CCN1C)Oc1c(OC)c(OC)cc3c1[C@H](C2)N(C)CC3` [TT, tetrandrine] here?
**A.** 4.3 µM

**Q.** And the doxorubicin resistance reversal (DX20 cancer cells; FIG. 1, DX20 versus parent MES-SA, addition of d-tetrandrine)?
**A.** either partially or completely reversed

**Q.** And the vincristine-resistance reversal (DX20 cancer cells; FIG. 2, DX20 versus parent MES-SA, addition of d-tetrandrine)?
**A.** either partially or completely reversed

**Q.** And the vinblastine resistance reversal (DX20 cancer cells; FIG. 3, DX20 versus parent MES-SA, addition of d-tetrandrine)?
**A.** either partially or completely reversed

**Q.** And the “sensitivity of DX20 to doxorubicin versus parent (MES) cell line” value (DX20 cancer cells; d-tetrandrine 1.0×10^−6 M combined with doxorubicin 1.2×10^−8 M)?
**A.** becomes more sensitive to doxorubicin than the parent (MES) cell line

**Q.** And the “doxorubicin concentration (fluorescence) in resistant versus sensitive cells” value ([1]; listed as d-tetrandrine)?
**A.** greater in the resistant cancer than it is in the sensitive cancer

**Q.** And the “doxorubicin concentration (fluorescence) in resistant versus sensitive cells” value ([1]; listed as tetrandrine (TT))?
**A.** contains more doxorubicin than the sensitive strain

**Q.** And the doxorubicin resistance reversal (A2780AD10)?
**A.** either partially or completely reversed

**Q.** And the doxorubicin-resistance reversal (DX20)?
**A.** either partially or completely reversed

**Q.** What about the “tumor outcome in patient” value (breast cancer) of the same compound?
**A.** substantially eliminated; also recorded: continued to diminish to nonexistence by day 175

**Q.** And the “d-Tetrandrine-(S) detected at the tumor” value [2]?
**A.** 54 micrograms/gram tissue

**Q.** What about the tumor outcome [3] of the same compound?
**A.** very large tumors which were unabated
